In paper PMC5610471, “Use of the KlADH3 promoter for the quantitative production of the murine PDE5A isoforms in the yeast Kluyveromyces lactis” (Microbial Cell Factories, 2017) one finds IC50 and Km data, which are given here for 2 molecules.

For data set [1], the target named is T1, PDE5A1 (Mus musculus, UniProt Q8CG03).
T1 construct: gene Pde5a
Description: biochemical.

For data set [2], the system named is [H][C@@]12COP(=O)(O)O[C@@]1([H])[C@@H](O)[C@H](n1cnc3c(=O)[nH]c(N)nc31)O2. As to the kind of experiment: purified protein. As to conditions: Mg2+ ([…] MgCl2 in the assay buffer).

For the molecule `CCCc1nn(C)c2c(=O)[nH]c(-c3cc(S(=O)(=O)N4CCN(C)CC4)ccc3OCC)nc12` [Sildenafil], the IC50 (as a rule, the concentration needed to halve the response being measured) in data set [1] came out at 4.7 ± 1.1 nM.

Turning to PDE5A1 (Mus musculus), the Km – broadly, the concentration of substrate that gives half-maximal velocity – in data set [2] came to 1.08 ± 0.08 µM.
